Data published in PubChem BioAssay (NCI).
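In this assay, cells in 96-well plates receive the compound at five concentrations for 48 hours. Endpoints are linearly interpolated between the surrounding concentrations. At the TGI there is no net growth.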

What was measured:
Test in all cases: NCI-60 cell line screen, 48 h
CCRF-CEM leukemia = test system: CCRF-CEM leukemia
SF-268 CNS = test system: SF-268 CNS
A498 renal = test system: A498 renal
M14 melanoma = test system: M14 melanoma
IGROV1 ovarian = test system: IGROV1 ovarian
DMS 114 small cell lung = test system: DMS 114 small cell lung
NCI-H226 lung = test system: NCI-H226 lung
UO-31 renal = test system: UO-31 renal
TK-10 renal = test system: TK-10 renal
NCI-H23 lung = test system: NCI-H23 lung
COLO 205 colon = test system: COLO 205 colon
MALME-3M melanoma = test system: MALME-3M melanoma
UACC-257 melanoma = test system: UACC-257 melanoma
OVCAR-3 ovarian = test system: OVCAR-3 ovarian
HOP-92 NSCLC = test system: HOP-92 NSCLC
SK-OV-3 ovarian = test system: SK-OV-3 ovarian
SF-539 CNS = test system: SF-539 CNS
LXFL 529 NSCLC = test system: LXFL 529 NSCLC
U251 CNS = test system: U251 CNS
HCC-2998 colon = test system: HCC-2998 colon
HOP-62 NSCLC = test system: HOP-62 NSCLC
SN12C renal = test system: SN12C renal
OVCAR-8 ovarian = test system: OVCAR-8 ovarian
786-0 renal = test system: 786-0 renal
M19-MEL melanoma = test system: M19-MEL melanoma
XF 498 CNS = test system: XF 498 CNS
KM12 colon = test system: KM12 colon
RXF-631 renal = test system: RXF-631 renal
SK-MEL-5 melanoma = test system: SK-MEL-5 melanoma
SK-MEL-2 melanoma = test system: SK-MEL-2 melanoma
ACHN renal = test system: ACHN renal
SNB-78 CNS = test system: SNB-78 CNS
EKVX NSCLC = test system: EKVX NSCLC
RXF 393 renal = test system: RXF 393 renal
SF-295 CNS = test system: SF-295 CNS
NCI-H522 lung = test system: NCI-H522 lung
OVCAR-4 ovarian = test system: OVCAR-4 ovarian
DMS 273 small cell lung = test system: DMS 273 small cell lung
DLD-1 colon = test system: DLD-1 colon
HCT-116 colon = test system: HCT-116 colon
HCT-15 colon = test system: HCT-15 colon
K-562 leukemia = test system: K-562 leukemia
SNB-75 CNS = test system: SNB-75 CNS
OVCAR-5 ovarian = test system: OVCAR-5 ovarian
SW-620 colon = test system: SW-620 colon
SR leukemia = test system: SR leukemia
HOP-18 NSCLC = test system: HOP-18 NSCLC
LOX IMVI melanoma = test system: LOX IMVI melanoma
A549 NSCLC = test system: A549 NSCLC
SK-MEL-28 melanoma = test system: SK-MEL-28 melanoma
CAKI-1 renal = test system: CAKI-1 renal
MOLT-4 leukemia = test system: MOLT-4 leukemia
NCI-H460 lung = test system: NCI-H460 lung
UACC-62 melanoma = test system: UACC-62 melanoma
KM20L2 colon = test system: KM20L2 colon
SNB-19 CNS = test system: SNB-19 CNS

SMILES: COc1ccc(N2C(=O)c3c(c4[nH]c5ccccc5c4c4ccc(C(C)(C)C)cc34)C2=O)cc1
- TGI (CCRF-CEM leukemia): 42.1 µM
- TGI (SF-268 CNS): 74.4 µM
- TGI (A498 renal): 77.1 µM
- TGI (M14 melanoma): > 100 µM
- TGI (IGROV1 ovarian): > 100 µM
- TGI (DMS 114 small cell lung): > 100 µM
- TGI (NCI-H226 lung): > 100 µM
- TGI (UO-31 renal): > 100 µM
- TGI (TK-10 renal): > 100 µM
- TGI (NCI-H23 lung): 51 µM
- TGI (COLO 205 colon): > 100 µM
- TGI (MALME-3M melanoma): > 100 µM
- TGI (UACC-257 melanoma): > 100 µM
- TGI (OVCAR-3 ovarian): 53.6 µM
- TGI (HOP-92 NSCLC): 64.2 µM
- TGI (SK-OV-3 ovarian): > 100 µM
- TGI (SF-539 CNS): > 100 µM
- TGI (LXFL 529 NSCLC): > 100 µM
- TGI (U251 CNS): 42.7 µM
- TGI (HCC-2998 colon): > 100 µM
- TGI (HOP-62 NSCLC): > 100 µM
- TGI (SN12C renal): > 100 µM
- TGI (OVCAR-8 ovarian): 63.6 µM
- TGI (786-0 renal): > 100 µM
- TGI (M19-MEL melanoma): > 100 µM
- TGI (XF 498 CNS): 49.8 µM
- TGI (KM12 colon): > 100 µM
- TGI (RXF-631 renal): > 100 µM
- TGI (SK-MEL-5 melanoma): > 100 µM
- TGI (SK-MEL-2 melanoma): 71.8 µM
- TGI (ACHN renal): > 100 µM
- TGI (SNB-78 CNS): 60 µM
- TGI (EKVX NSCLC): > 100 µM
- TGI (RXF 393 renal): 98.1 µM
- TGI (SF-295 CNS): 92.9 µM
- TGI (NCI-H522 lung): > 100 µM
- TGI (OVCAR-4 ovarian): 52.9 µM
- TGI (DMS 273 small cell lung): > 100 µM
- TGI (DLD-1 colon): > 100 µM
- TGI (HCT-116 colon): > 100 µM
- TGI (HCT-15 colon): > 100 µM
- TGI (K-562 leukemia): > 100 µM
- TGI (SNB-75 CNS): 35.4 µM
- TGI (OVCAR-5 ovarian): > 100 µM
- TGI (SW-620 colon): > 100 µM
- TGI (SR leukemia): 57.2 µM
- TGI (HOP-18 NSCLC): > 100 µM
- TGI (LOX IMVI melanoma): > 100 µM
- TGI (A549 NSCLC): > 100 µM
- TGI (SK-MEL-28 melanoma): > 100 µM
- TGI (CAKI-1 renal): > 100 µM
- TGI (MOLT-4 leukemia): 52 µM
- TGI (NCI-H460 lung): > 100 µM
- TGI (UACC-62 melanoma): 48.3 µM
- TGI (KM20L2 colon): > 100 µM
- TGI (SNB-19 CNS): > 100 µM
